In ChEMBL document CHEMBL1201862, “PubChem BioAssay data set” (2004):
Activity calls are given as the source filed them.

Assays:
Format in all cases: functional
[1] = biological target: T1, Apoptotic protease-activating factor 1 (Homo sapiens, UniProt O14727)
T1 sequence (O14727 whole entry): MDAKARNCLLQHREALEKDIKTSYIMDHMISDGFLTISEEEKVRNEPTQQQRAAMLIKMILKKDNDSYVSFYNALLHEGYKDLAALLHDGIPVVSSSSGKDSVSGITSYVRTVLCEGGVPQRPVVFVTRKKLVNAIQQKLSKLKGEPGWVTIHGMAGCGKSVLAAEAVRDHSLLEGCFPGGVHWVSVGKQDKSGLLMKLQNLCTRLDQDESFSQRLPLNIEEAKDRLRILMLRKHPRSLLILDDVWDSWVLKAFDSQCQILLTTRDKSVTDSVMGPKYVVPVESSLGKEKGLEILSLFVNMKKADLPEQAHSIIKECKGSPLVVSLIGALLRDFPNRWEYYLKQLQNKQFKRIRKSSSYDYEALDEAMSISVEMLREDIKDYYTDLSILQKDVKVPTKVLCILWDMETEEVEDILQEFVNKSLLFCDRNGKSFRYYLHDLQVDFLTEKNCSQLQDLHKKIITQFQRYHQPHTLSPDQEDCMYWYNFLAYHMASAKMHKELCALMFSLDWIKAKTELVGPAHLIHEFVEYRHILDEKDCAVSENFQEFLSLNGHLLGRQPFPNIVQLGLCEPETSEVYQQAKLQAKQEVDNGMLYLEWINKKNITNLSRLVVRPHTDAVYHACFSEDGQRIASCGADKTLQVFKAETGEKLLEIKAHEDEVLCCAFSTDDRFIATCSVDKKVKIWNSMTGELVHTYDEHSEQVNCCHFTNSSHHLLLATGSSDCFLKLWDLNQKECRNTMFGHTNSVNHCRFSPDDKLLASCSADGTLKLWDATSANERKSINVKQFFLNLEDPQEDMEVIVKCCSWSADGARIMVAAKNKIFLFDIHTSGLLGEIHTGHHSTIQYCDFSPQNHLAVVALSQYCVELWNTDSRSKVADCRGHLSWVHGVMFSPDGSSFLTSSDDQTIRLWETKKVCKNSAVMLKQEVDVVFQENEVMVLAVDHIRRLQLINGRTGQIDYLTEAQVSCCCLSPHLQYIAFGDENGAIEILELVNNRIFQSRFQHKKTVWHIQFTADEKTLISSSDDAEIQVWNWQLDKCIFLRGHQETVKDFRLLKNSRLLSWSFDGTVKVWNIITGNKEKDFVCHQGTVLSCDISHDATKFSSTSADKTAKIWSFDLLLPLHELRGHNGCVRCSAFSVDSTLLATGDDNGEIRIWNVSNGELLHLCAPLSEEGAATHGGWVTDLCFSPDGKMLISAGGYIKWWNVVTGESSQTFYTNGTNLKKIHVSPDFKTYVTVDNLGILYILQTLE

[2] = biological target: T2, Sentrin-specific protease 6 (Homo sapiens, UniProt Q9GZR1);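 further: Luminescence-based dose-response confirmatory assay of SENP6 inhibition, following up an ultra-high-throughput screen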
T2 sequence (Q9GZR1 whole entry): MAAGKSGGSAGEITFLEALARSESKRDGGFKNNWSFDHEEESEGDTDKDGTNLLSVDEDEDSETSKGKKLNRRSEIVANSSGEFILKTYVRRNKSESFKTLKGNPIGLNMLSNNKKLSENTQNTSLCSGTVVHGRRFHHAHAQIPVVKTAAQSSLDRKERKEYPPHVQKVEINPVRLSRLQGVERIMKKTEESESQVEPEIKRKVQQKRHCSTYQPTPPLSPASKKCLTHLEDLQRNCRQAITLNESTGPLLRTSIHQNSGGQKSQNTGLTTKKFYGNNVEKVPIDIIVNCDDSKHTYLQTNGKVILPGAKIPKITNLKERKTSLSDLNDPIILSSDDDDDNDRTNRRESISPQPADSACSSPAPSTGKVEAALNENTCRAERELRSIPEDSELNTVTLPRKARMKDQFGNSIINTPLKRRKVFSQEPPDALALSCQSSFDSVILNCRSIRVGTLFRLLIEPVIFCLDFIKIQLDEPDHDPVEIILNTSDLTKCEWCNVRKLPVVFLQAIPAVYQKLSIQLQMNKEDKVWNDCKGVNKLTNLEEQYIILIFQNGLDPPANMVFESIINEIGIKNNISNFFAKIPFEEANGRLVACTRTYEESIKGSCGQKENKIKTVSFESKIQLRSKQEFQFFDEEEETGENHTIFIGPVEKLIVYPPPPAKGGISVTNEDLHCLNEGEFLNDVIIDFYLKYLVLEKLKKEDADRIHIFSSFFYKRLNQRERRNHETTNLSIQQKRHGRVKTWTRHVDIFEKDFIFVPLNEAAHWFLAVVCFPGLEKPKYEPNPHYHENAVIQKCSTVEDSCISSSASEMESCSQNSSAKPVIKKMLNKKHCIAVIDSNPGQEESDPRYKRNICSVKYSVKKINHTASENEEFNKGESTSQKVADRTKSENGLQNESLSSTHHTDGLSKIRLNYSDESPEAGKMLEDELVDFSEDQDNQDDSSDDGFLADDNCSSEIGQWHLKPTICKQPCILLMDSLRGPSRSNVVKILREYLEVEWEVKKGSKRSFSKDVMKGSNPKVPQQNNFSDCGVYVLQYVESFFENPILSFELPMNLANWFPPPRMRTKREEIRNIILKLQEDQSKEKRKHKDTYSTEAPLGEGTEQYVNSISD

Caspase-3 = biological target: T3, Caspase-3 (Homo sapiens, UniProt P42574);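 further: Dose-response selectivity test against caspase-3 for candidate inhibitors of sentrin-specific proteases (SENPs)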
T3 sequence (P42574 whole entry): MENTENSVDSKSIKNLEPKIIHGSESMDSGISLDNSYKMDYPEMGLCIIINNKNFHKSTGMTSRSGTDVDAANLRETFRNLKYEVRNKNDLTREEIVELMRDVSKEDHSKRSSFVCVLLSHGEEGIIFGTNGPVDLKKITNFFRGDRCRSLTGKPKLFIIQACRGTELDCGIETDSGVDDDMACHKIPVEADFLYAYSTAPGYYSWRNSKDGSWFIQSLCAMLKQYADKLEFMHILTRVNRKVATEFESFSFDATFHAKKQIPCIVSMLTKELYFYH

[3] = biological target: BDNF/NT-3 growth factors receptor (Homo sapiens, UniProt Q16620);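 further: NTRK2 measured as one member of a broad kinome-wide kinase profiling panel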
Chain of BDNF/NT-3 growth factors receptor (Q16620 whole entry): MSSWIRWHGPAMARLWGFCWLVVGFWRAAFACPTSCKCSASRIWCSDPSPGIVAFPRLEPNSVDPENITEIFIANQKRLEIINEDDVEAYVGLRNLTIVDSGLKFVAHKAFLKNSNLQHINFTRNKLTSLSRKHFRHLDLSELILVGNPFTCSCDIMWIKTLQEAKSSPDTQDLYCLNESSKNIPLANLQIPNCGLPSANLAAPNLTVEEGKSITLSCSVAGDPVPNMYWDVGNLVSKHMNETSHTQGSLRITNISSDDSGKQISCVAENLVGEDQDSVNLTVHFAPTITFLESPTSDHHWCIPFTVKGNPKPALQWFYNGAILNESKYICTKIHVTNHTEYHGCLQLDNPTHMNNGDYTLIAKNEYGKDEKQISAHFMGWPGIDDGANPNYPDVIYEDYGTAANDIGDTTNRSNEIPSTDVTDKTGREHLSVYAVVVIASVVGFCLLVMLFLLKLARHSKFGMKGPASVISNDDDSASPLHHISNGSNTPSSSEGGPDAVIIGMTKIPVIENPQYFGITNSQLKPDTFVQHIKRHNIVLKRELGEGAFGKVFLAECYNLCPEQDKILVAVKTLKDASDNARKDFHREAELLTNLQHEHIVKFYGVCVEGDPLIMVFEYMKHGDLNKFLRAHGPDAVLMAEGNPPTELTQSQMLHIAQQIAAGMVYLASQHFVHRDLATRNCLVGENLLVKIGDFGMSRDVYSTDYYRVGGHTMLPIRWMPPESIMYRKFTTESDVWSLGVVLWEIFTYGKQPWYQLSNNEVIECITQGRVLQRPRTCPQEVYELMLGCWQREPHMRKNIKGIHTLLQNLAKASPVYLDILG

[4] = biological target: Dual specificity mitogen-activated protein kinase kinase 2 (Homo sapiens, UniProt P36507); experiment: Navigating the Kinome. Panel member name: MAP2K2
Chain of Dual specificity mitogen-activated protein kinase kinase 2 (P36507 whole entry): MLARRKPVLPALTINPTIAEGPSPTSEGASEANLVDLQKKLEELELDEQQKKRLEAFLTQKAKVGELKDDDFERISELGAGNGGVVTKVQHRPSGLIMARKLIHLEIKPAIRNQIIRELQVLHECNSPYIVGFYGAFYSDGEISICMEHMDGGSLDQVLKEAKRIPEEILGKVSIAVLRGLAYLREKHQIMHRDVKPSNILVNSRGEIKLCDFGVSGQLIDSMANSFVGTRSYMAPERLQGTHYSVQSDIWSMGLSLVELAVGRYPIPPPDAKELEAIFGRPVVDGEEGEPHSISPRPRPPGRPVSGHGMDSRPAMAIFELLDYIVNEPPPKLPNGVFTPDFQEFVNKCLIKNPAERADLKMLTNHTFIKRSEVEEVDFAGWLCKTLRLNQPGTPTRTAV

[5] = biological target: Hepatocyte growth factor receptor (Homo sapiens, UniProt P08581);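 further: kinase panel profiling across the kinome, with MET as the panel member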
[6] = biological target: Macrophage colony-stimulating factor 1 receptor (Homo sapiens, UniProt P07333);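 further: value comes from the Navigating the Kinome screening panel, CSF1R member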
Chain of Macrophage colony-stimulating factor 1 receptor (P07333 whole entry): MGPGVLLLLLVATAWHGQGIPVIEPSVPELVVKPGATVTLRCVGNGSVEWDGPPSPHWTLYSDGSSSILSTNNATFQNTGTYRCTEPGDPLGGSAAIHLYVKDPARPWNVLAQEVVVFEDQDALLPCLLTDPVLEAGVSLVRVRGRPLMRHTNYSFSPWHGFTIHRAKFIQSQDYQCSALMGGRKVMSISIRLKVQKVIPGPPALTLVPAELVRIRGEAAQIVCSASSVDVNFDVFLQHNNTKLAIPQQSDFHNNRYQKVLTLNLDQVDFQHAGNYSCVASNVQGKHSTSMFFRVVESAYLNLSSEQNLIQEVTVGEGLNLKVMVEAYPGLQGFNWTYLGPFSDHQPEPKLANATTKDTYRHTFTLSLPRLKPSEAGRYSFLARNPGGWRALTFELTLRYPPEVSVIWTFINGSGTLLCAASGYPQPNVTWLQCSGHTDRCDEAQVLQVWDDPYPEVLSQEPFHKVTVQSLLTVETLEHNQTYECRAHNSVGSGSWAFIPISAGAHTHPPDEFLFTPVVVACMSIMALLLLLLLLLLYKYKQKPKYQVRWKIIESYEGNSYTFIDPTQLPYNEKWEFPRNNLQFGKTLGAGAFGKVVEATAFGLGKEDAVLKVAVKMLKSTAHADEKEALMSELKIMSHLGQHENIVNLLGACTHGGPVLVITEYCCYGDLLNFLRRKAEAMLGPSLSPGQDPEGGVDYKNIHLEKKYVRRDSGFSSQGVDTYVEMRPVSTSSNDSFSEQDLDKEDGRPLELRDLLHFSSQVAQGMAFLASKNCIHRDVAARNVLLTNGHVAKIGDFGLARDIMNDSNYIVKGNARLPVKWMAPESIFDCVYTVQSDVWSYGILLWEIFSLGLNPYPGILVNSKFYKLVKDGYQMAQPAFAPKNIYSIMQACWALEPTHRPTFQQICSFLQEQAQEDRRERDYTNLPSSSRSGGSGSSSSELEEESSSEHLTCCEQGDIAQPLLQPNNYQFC

[7] = biological target: Tyrosine-protein kinase ABL1 (Homo sapiens, UniProt P00519)
Chain of Tyrosine-protein kinase ABL1 (P00519 whole entry): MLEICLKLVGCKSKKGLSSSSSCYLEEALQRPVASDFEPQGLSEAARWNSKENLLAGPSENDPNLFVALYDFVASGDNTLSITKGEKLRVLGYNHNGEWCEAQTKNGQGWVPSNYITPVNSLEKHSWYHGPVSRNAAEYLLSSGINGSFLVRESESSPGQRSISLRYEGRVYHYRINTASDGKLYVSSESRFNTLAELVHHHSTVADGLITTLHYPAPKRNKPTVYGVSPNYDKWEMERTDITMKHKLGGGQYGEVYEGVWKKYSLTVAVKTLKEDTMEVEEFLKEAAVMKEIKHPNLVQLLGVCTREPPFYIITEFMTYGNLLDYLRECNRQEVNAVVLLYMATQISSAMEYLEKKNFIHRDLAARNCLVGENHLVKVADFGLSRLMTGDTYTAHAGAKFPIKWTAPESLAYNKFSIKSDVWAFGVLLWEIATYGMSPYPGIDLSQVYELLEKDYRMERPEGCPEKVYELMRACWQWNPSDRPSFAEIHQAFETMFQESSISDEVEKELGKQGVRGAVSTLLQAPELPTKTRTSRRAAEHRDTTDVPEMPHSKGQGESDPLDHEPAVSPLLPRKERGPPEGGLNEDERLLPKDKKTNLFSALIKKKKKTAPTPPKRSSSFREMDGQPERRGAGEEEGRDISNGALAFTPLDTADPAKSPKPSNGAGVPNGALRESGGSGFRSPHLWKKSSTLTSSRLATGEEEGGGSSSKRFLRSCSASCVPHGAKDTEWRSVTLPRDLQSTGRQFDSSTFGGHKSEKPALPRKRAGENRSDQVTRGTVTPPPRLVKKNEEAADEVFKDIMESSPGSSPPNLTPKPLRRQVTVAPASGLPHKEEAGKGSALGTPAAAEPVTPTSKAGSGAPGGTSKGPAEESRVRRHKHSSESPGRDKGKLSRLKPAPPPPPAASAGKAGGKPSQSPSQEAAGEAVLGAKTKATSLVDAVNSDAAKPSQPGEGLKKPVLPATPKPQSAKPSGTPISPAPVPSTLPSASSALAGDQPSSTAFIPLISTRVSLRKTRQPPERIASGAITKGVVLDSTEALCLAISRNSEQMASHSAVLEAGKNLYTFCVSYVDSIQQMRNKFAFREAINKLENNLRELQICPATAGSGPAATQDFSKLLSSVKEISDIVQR

[8] = biological target: Platelet-derived growth factor receptor alpha (Homo sapiens, UniProt P16234); experiment: Navigating the Kinome. Panel member name: PDGFRA
Chain of Platelet-derived growth factor receptor alpha (P16234 whole entry): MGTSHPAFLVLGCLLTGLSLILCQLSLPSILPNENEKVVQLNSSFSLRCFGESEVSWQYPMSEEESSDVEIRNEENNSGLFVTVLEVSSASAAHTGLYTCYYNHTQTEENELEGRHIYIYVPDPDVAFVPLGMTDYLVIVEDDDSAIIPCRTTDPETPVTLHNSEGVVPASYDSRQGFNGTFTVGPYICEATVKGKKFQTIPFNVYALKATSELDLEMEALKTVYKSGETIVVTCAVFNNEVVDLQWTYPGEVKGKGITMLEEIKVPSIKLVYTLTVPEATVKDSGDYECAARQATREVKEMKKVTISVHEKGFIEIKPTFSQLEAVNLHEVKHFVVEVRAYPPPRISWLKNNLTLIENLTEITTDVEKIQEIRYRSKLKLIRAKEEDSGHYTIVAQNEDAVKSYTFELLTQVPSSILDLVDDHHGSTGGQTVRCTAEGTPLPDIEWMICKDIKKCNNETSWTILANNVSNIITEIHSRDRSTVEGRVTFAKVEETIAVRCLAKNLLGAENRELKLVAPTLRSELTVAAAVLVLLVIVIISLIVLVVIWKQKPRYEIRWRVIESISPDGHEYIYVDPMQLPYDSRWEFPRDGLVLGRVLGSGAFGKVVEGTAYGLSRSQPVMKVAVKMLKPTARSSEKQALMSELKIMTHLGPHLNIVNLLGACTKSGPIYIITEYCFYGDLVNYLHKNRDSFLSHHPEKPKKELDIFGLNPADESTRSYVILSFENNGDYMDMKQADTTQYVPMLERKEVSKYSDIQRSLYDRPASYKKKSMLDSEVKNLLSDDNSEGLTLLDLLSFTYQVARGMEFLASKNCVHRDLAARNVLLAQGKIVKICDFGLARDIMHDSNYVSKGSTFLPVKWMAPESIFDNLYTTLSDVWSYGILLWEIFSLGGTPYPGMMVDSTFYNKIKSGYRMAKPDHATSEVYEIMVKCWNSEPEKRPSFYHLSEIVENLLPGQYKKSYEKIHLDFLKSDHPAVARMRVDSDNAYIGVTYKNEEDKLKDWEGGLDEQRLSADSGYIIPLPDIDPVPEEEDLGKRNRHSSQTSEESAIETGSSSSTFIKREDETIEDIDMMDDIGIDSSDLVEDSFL

[9] = biological target: Cyclin-dependent kinase 5 (Homo sapiens, UniProt Q00535);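 further: CDK5 measured as one member of a kinase profiling panel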
Chain of Cyclin-dependent kinase 5 (Q00535 whole entry): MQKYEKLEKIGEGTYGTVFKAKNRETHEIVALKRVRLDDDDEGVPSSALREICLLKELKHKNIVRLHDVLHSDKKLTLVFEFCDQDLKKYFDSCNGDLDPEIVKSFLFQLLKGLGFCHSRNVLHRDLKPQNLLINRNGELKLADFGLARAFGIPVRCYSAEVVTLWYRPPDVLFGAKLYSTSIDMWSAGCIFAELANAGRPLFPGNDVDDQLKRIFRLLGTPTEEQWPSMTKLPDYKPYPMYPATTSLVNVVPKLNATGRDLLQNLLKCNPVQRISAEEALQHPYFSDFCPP

With CCN(CC)CCOc1ccc2c(c1)C(=NNC(=O)c1ccccn1)c1cc(OCCN(CC)CC)ccc1-2 the IC50 [1] was 10.2 µM (active).
In the case of O=C(NC1=C(Nc2ccc(F)cc2)C(=O)c2ccccc2C1=O)c1ccc(Cl)cc1, the IC50 [2] is reported as 8.56 µM (active), the IC50 [1] is reported as 16.2 µM (active) and the IC50 (Caspase-3) is reported as 19 µM (active).
In the case of COc1cc2cc(NC(C)=O)cc(NCc3ccccc3)c2cc1OC, the IC50 [1] is reported as 20.7 µM (active).
For Oc1nc(Nc2ccc(F)cc2)cc2ccccc12, the IC50 [2] was 2.99 µM (active), the IC50 [1] was 3.76 µM (active) and the IC50 (Caspase-3) was 4.77 µM (active).
CN(C)c1cc(N/N=C\c2ccccc2)nc(N(C)C)n1 was tested, and the IC50 [2] was 6 µM (active), the IC50 [1] was 1.1 µM (active) and the IC50 (Caspase-3) was > 100 µM (inactive).
For O=C1Nc2cc(-c3ccc(O)cc3)ccc2C1=Cc1ccc[nH]1, the Ki [3] was 0.631 µM (active), the Ki [4] was > 3.98 µM (inactive) and the Ki [5] was 2.51 µM (active). The Ki [6] was 1.26 µM (active), the Ki [7] was 0.0501 µM (active) and the Ki [8] was 0.501 µM (active). For the same compound, the Ki [9] was > 3.16 µM (inactive).
NC(COc1cncc(-c2ccc3c(c2)C(=Cc2ccc[nH]2)C(=O)N3)c1)Cc1ccccc1 (configuration not stated) was tested, and the Ki [3] was 0.00501 µM (active), the Ki [4] was 0.316 µM (active) and the Ki [5] was 0.316 µM (active). For the same compound, the Ki [6] was 0.631 µM (active), the Ki [7] was 0.0631 µM (active) and the Ki [8] was 0.126 µM (active). For the same compound, the Ki [9] was 0.000631 µM (active).
With O=C1Cc2cc(-c3ccccc3)cnc2N1 the Ki [3] was 100 µM (active), the Ki [4] was 50.1 µM (active) and the Ki [5] was 25.1 µM (active). The Ki [6] was 63.1 µM (active), the Ki [7] was 79.4 µM (active) and the Ki [8] was 39.8 µM (active). For the same compound, the Ki [9] was 25.1 µM (active).
